Measured values as given in patent publication US20220000110A1, “COMPOSITIONS COMPRISING PYRIDINE CARBOXYLATE HERBICIDES AND CELLULOSE BIOSYNTHESIS INHIBITOR HERBICIDES” (priority 2018, published 2022).

Assays:
Test in all cases: Greenhouse postemergence herbicidal effect, visual injury after 20-22 d
Assay type in all cases: in vivo
[1] = test system: Chenopodium album L. (common lambsquarters); conditions: CHEAL
Source text: (§1) Greenhouse Trial Methodology—Evaluation of Postemergence Herbicidal Effect
(§2) Seeds of the desired test plant species were planted in a 90:10% v/v (volume/volume) mixture of PRO-MIX® BX (Premier Tech Horticulture, Quakertown, Pa., USA) and PROFILE® GREENS GRADE™ (Profile Products LLC, Buffalo Grove, Ill., USA) planting mixture, which typically has a pH of 5.2 to 6.2 and an organic matter content of at least 50 percent, in plastic pots with a surface area of 103.2 square centimeters (cm^2). In some aspects, to help ensure good germination and healthy plants, a fungicide treatment and/or other chemical or physical treatment was applied. The plants were grown for 7-36 days (d) in a greenhouse with an approximate 14-hour (h) photoperiod which was maintained at about 23° C. during the day and 22° C. during the night. Nutrients and water were added on a regular basis and supplemental lighting was provided with overhead metal halide 1000-Watt lamps as necessary. The plants were employed for testing when they reached the second or third true leaf stage.
(§3) Emulsifiable concentrates of each of each pyridine carboxylate herbicide (Compound A or Compound B) were prepared at 100 grams acid equivalent per liter (g ae/L). The emulsifiable concentrates also included a safener, at 120 grams active ingredient per liter (g ai/L). An aliquot of each emulsifiable concentrate was placed in a 25 mL glass vial and diluted with an aqueous mixture of 1.25% (v/v) ACTIROB® B esterified rapeseed oil (Bayer Crop Science, Research Triangle Park, N.C., USA) or MSO® Concentrate with LECI-TECH® methylated soybean oil (Loveland Products, Loveland, Colo., USA) to obtain concentrated stock solutions at the highest application rate for each herbicide, based upon a 12 milliliter (mL) application volume at a rate of 187 liters per hectare (L/ha). The concentrated stock solutions were further diluted with an aqueous mixture of 1.25% v/v ACTIROB® B or MSO® Concentrate with LECI-TECH® to obtain stock solutions at reduced application rates for each herbicide. Spray solutions of the herbicide combinations (Compound A or Compound B plus the CBI herbicide) were prepared by adding weighed amounts or aliquots of the CBI herbicide to the stock solutions of Compound A or Compound B to form 12-mL spray solutions in two-way combinations.
(§4) The spray solutions were applied to the plant material with an overhead Mandel track sprayer equipped with 8002E nozzles calibrated to deliver 187 L/ha over an application area of 0.503 square meters (m^2) at a spray height of 18 inches (43 centimeters (cm)) above the average plant canopy. Control plants were sprayed in the same manner with the solvent blank. All pyridine carboxylate herbicide (component a) application rates are given as “g ae/ha” and all CBI herbicide (component b) application rates are given as “g ai/ha.”
(§5) The treated plants and control plants were placed in a greenhouse as described above and watered by sub-irrigation to prevent wash-off of the test compounds. After 20-22 d, the condition of the test plants as compared with that of the control plants was determined visually and scored on a scale of 0 to 100 percent where 0 corresponds to no injury and 100 corresponds to complete kill.

[2] = test system: Viola tricolor (wild pansy); conditions: VIOTR
Source text: as §1, §2, §3, §4, §5

[3] = test system: Lolium multiflorum (Italian rye grass); conditions: Table 2, LOLMU
Source text: as §1, §2, §3, §4, §5

Glycine max (soybean) = conditions: Table 1, GLXMA
Source text: as §1, §2, §3, §4, §5

[4] = test system: Oryza sativa (common rice); conditions: Table 1, ORYSA
Source text: as §1, §2, §3, §4, §5

[5] = test system: Sorghum vulgare (grain sorghum); conditions: Table 1, SORVU
Source text: as §1, §2, §3, §4, §5

[6] = test system: Salsola kali (Russian thistle); conditions: SASKR
Source text: as §1, §2, §3, §4, §5

[7] = test system: Stellaria media (chickweed); conditions: Table 1, STEME
Source text: as §1, §2, §3, §4, §5

[8] = test system: Abutilon theophrasti (velvetleaf); conditions: ABUTH
Source text: as §1, §2, §3, §4, §5

[9] = test system: Polygonum convolvulus (wild buckwheat); conditions: POLCO
Source text: as §1, §2, §3, §4, §5

[10] = test system: Echinochloa crus-galli (barnyard grass); conditions: ECHCG
Source text: as §1, §2, §3, §4, §5

[11] = test system: Matricaria chamomilla (wild chamomile); conditions: MATCH
Source text: as §1, §2, §3, §4, §5

[12] = test system: Brassica napus (spring rape); conditions: BRSNN
Source text: as §1, §2, §3, §4, §5

N#CCOC(=O)c1nc(-c2ccc3cc[nH]c3c2F)c(F)c(N)c1Cl [Compound A, cyanomethyl 4-amino-3-chloro-5-fluoro-6-(7-fluoro-1H-indol-6-yl)pyridine-2-carboxylate]
Obs % visual injury ([1]; Table 1, Compound A 7.5 g/ha): 98% | Obs % visual injury ([1]; Table 1, Compound A 10 g/ha): 93% | Obs % visual injury ([1]; Table 3, Compound A 7.5 g/ha): 70% | Obs % visual injury ([1]; Table 3, Compound A 10 g/ha): 78% | Obs % visual injury ([1]; Table 3, Compound A 15 g/ha): 83% | Obs % visual injury ([1]; Table 4, Compound A 7.5 g/ha): 70% | Obs % visual injury ([1]; Table 4, Compound A 10 g/ha): 78% | Obs % visual injury ([1]; Table 4, Compound A 15 g/ha): 83% | Obs % visual injury ([2]; Table 1, Compound A 7.5 g/ha): 38% | Obs % visual injury ([2]; Table 1, Compound A 10 g/ha): 15% | Obs % visual injury ([2]; Table 2, Compound A 7.5 g/ha): 10% | Obs % visual injury ([2]; Table 2, Compound A 10 g/ha): 18% | Obs % visual injury ([3]; Compound A 7.5 g/ha): 0% | Obs % visual injury ([3]; Compound A 10 g/ha): 0% | Obs % visual injury (Glycine max (soybean); Compound A 7.5 g/ha): 80% | Obs % visual injury (Glycine max (soybean); Compound A 10 g/ha): 90% | Obs % visual injury ([4]; Compound A 7.5 g/ha): 3% | Obs % visual injury ([4]; Compound A 10 g/ha): 8% | Obs % visual injury ([5]; Compound A 7.5 g/ha): 0% | Obs % visual injury ([5]; Compound A 10 g/ha): 0% | Obs % visual injury ([6]; Table 3, Compound A 7.5 g/ha): 55% | Obs % visual injury ([6]; Table 3, Compound A 10 g/ha): 58% | Obs % visual injury ([6]; Table 3, Compound A 15 g/ha): 65% | Obs % visual injury ([6]; Table 4, Compound A 7.5 g/ha): 55% | Obs % visual injury ([6]; Table 4, Compound A 10 g/ha): 58% | Obs % visual injury ([6]; Table 4, Compound A 15 g/ha): 65% | Obs % visual injury ([7]; Compound A 7.5 g/ha): 89% | Obs % visual injury ([7]; Compound A 10 g/ha): 90% | Obs % visual injury ([8]; Table 1, Compound A 7.5 g/ha): 68% | Obs % visual injury ([8]; Table 1, Compound A 10 g/ha): 80% | Obs % visual injury ([8]; Table 2, Compound A 7.5 g/ha): 68% | Obs % visual injury ([8]; Table 2, Compound A 10 g/ha): 78% | Obs % visual injury ([9]; Table 1, Compound A 7.5 g/ha): 83% | Obs % visual injury ([9]; Table 1, Compound A 10 g/ha): 93% | Obs % visual injury ([9]; Table 2, Compound A 7.5 g/ha): 75% | Obs % visual injury ([9]; Table 2, Compound A 10 g/ha): 70% | Obs % visual injury ([9]; Table 3, Compound A 7.5 g/ha): 63% | Obs % visual injury ([9]; Table 3, Compound A 10 g/ha): 60% | Obs % visual injury ([9]; Table 3, Compound A 15 g/ha): 63% | Obs % visual injury ([9]; Table 4, Compound A 7.5 g/ha): 63% | Obs % visual injury ([9]; Table 4, Compound A 10 g/ha): 60% | Obs % visual injury ([9]; Table 4, Compound A 15 g/ha): 63% | Obs % visual injury ([10]; Table 1, Compound A 7.5 g/ha): 88% | Obs % visual injury ([10]; Table 1, Compound A 10 g/ha): 80% | Obs % visual injury ([10]; Table 2, Compound A 7.5 g/ha): 73% | Obs % visual injury ([10]; Table 2, Compound A 10 g/ha): 78% | Obs % visual injury ([11]; Table 3, Compound A 7.5 g/ha): 8% | Obs % visual injury ([11]; Table 3, Compound A 10 g/ha): 15% | Obs % visual injury ([11]; Table 3, Compound A 15 g/ha): 10% | Obs % visual injury ([11]; Table 4, Compound A 7.5 g/ha): 8% | Obs % visual injury ([11]; Table 4, Compound A 10 g/ha): 15% | Obs % visual injury ([11]; Table 4, Compound A 15 g/ha): 10% | Obs % visual injury ([12]; Table 1, Compound A 7.5 g/ha): 65% | Obs % visual injury ([12]; Table 1, Compound A 10 g/ha): 65% | Obs % visual injury ([12]; Table 2, Compound A 7.5 g/ha): 73% | Obs % visual injury ([12]; Table 2, Compound A 10 g/ha): 83%
